Structures are written as SMILES.

Regarding `O=C(CC1CCCCC1)NC1CC(C(=O)O)Nc2cc(Cl)cc(Cl)c21` (centres undefined), the melting point (commonly the temperature of the solid-liquid transition) is 197 to 200 °C.

With `COCCC(=O)OC1(C(=O)COC(C)=O)CCC2C3CC(C)C4=CC(=O)C=CC4(C)C3C(O)CC21C` (centres undefined), the melting point amounted to 162 °C.

For `Cc1nc(Nc2nc(N)nc(-c3ccccc3)c2-c2ccc(=O)n(C(C)C)n2)sc1C`, the melting point lay in the range of 256 to 258 °C.

With `Cc1cccc(NC(=O)OCc2cccc(O)c2)c1CNc1cccn2c(C)c(C)nc12`, the melting point lay in the range of 190 to 193 °C.

As to `CS(=O)(=O)c1ccc(-c2cnn(Cc3ccsc3)c(=O)c2-c2ccc(F)cc2)cc1`, the melting point lay in the range of 169 to 172 °C.

As to `CC(C)(C)C(=O)Oc1ccc(S(=O)(=O)c2ccc(S(N)(=O)=O)s2)cc1`, the melting point is 192 to 195 °C.

For the compound `O=C1c2cc(F)ccc2CCC1CN1CCC2(CC1)C(=O)NCN2c1ccccc1` (centres undefined), the melting point was in the range of 162 to 165 °C.

`O=c1c(-c2ccccc2)c[nH]n1-c1cccc(C(F)(F)F)c1`: the melting point lay in the range of 210 to 213 °C.

With `Nc1nc(/C(=N/OCC(=O)OC(c2ccccc2)c2ccccc2)C(=O)Sc2nc3ccccc3s2)cs1`, the melting point worked out at 152 °C.

For the compound `Nc1ccc2ccc(Cl)cc2n1`, the melting point was determined as 175 °C.

With `Cn1nnnc1SCCCCN1C(=O)c2ccccc2C1=O`, the melting point is 92 to 93 °C.

For the compound `Cn1ncc(CCC(=O)O)c1-c1ccc(Cl)cc1`, the melting point lay within 138 to 140 °C.

`O=C(O)Cc1ccc(NC(=O)C(Cc2ccccc2)NS(=O)(=O)c2ccc(Cl)cc2)cc1` (racemic): the melting point is 204 to 206 °C.

Consider `COc1ccnc(CCC(=O)O)c1`, for which the melting point is 131 to 132 °C.

In the case of `CCCCCC(=O)OCCCOc1ccc(Nc2ccccc2)cc1`, the melting point was 50 to 51 °C.

Regarding `O=C1c2ccc(OCCn3ccnc3)cc2CCC1Cc1ccc(Br)cc1` (centres undefined), the melting point fell in the range of 129 to 130 °C.

With `CCCn1c(=O)c2[nH]cnc2n(CCC)c1=O`, the melting point lay in the range of 201 to 205 °C.

For the compound `COc1ccccc1CN1CCN(C)CC1C1=NCCN1` (centres undefined), the melting point was in the range of 168 to 170 °C.

On to `CC(O)CNc1c(Br)cnc2ccccc12` (centres undefined), for which the melting point lay within 82 to 83 °C.

On to `O=C(c1ccccc1)c1ccc(SCCO)cc1`, for which the melting point fell in the range of 49 to 51 °C.

Compound `C=C(c1ccccc1N1CCCCC1)C(C(N)=O)c1ccc(C(=O)O)cc1` (centres undefined) showed a melting point of 158 to 160 °C.

In the case of `O=C(O)c1cn(Cc2ccccc2)c2cc(N3CCNCC3)c(F)cc2c1=O`, the melting point was 250 to 253 °C.

In the case of `O=C(CN1CCOCC1)Nc1cccc2nc(N[C@@H]3CCc4ccccc43)ccc12`, the melting point came out at 179 °C.

`O=C1NC(=S)NC(=O)C1=Cc1cc(Br)cs1`: the melting point is 230 °C.

Consider `CCCn1cc(C(=O)c2cccc3cc(OC)ccc23)c2ccccc21`, for which the melting point fell in the range of 139 to 140 °C.

As to `Cc1noc(NS(=O)(=O)c2ccc(-c3cc4ccccc4s3)s2)c1Br`, the melting point turned out to be 164 °C.

For `COc1ccc(C=CN(C)C)c([N+](=O)[O-])c1[N+](=O)[O-]`, the melting point lay in the range of 100 to 131 °C.

In the case of `O=C1OCc2cc(C(F)(F)F)ccc21`, the melting point was 71 to 72 °C.

Compound `Cn1nnnc1C(/C=C/[C@@H]1C[C@@H](O)CC(=O)O1)=C(c1ccc(F)cc1)c1ccc(F)cc1` yielded a melting point of 104 to 106 °C.

For `COC(=O)Cc1ccc(O)c(NC(=O)C(C)(C)C)c1`, the melting point was in the range of 112 to 113 °C.

`COc1cc(C(=O)N2Cc3ccc(C(=O)NCc4ccc5c(c4)OCCO5)n3Cc3ccccc32)ccc1-c1ccccc1C` registered a melting point of 153 to 155 °C.

Regarding `CCCCCCCCCCCNC(=O)NCCCC`, the melting point turned out to be 70 °C.

In turn, `COc1cc([N+](=O)[O-])c(Br)cc1OCc1ccccc1` came in with a melting point of 134 to 135 °C.

`CCCCNC(=O)c1nc2cnn(CC)c2nc1-c1ccccc1` returned a melting point of 127 to 128 °C.

Turning to `CC(C)CCCC(C)C1CCC2C3CC=C4CC(OCCC#CCCOC(c5ccccc5)(c5ccccc5)c5ccccc5)CCC4(C)C3CCC12C` (centres undefined), the melting point was 112 to 113 °C.

`O=C(O)COc1cccc2c1CCc1sc(S(=O)(=O)CCC(c3ccccc3)c3ccccc3)nc1-2` gave a melting point of 175 to 176 °C.

As for `CCOC(=O)CNC(=O)c1cc(F)c(F)cc1N`, the melting point came to 147 °C.

On to `O=C(O)COc1cc2c(=O)c3c(F)cccc3oc2cc1Cl`, for which the melting point fell in the range of 242 to 245 °C.

`CN(C(=O)Nc1ccccc1F)C(Cl)C(Cl)(Cl)Cl` (centres undefined) registered a melting point of 130 to 141 °C.

In turn, `OC(CCn1ccnc1)c1ccccc1` (centres undefined) yielded a melting point of 106 to 108 °C.

As for `CCCCCCCCCCCCCCCCOCCSCCOC(=O)N(Cc1ccccn1)C(C)=O`, the melting point fell in the range of 41 to 44 °C.

`COC(=O)CCC/C=C(/c1ccc(OC)c(C(=O)OC)c1)c1cc(C)c2oc(=O)n(C)c2c1` had a melting point of 134 to 135 °C.

As to `CCCCn1c(=O)n(C2OC(CO)C(O)C2O)c2nc(N)[nH]c(=O)c21` (centres undefined), the melting point is over 230 °C.

Compound `CCOC(=O)CCCCCOc1ccc(-c2nc(=O)c3ccccc3s2)cn1` gave a melting point of 73.6 to 73.9 °C.

In turn, `CCCOc1ccc(CCCCCCC(=O)O)cc1` showed a melting point of 49 to 50 °C.

`CC(=O)SCC(Cc1ccccc1)C(=O)Nc1cc(C(=O)O)ccc1O` (centres undefined): the melting point was 202 to 206 °C.

On to `COc1cc2c(cc1Cl)C(Cl)Cc1ccccc1S2` (centres undefined), for which the melting point lay within 130 to 132 °C.

As for `CC(=O)N1CCN=C1Nc1ccnn1-c1cccc(C(F)(F)F)c1`, the melting point lay within 194 to 197 °C.

`COC(=O)COc1ccc(C(=O)NNC(=O)c2ccc(C#N)cc2)cc1` came in with a melting point of 220 to 222 °C.

Take `O=C(O)CCCc1ccc(C(=O)C=Cc2ccccc2)cc1`: the melting point fell in the range of 111 to 112 °C.

`CC(=O)c1ccc(C2=CCCCCC2)cc1` displayed a melting point of 36 to 38 °C.

For `CCc1oc(C)cc(=O)c1O`, the melting point was 157 to 159 °C.

`CC(O)(c1ccc(C#N)cc1)c1cncs1` (centres undefined) gave a melting point of 162 to 164 °C.

Compound `Cc1ccc(Cc2cnc(NCCCCc3ncc([N+](=O)[O-])cc3C)[nH]c2=O)cn1` came in with a melting point of 141 to 142 °C.

Compound `FC(F)(F)c1ccc2c(C3=CCN(CCCOc4cccc5[nH]ccc45)CC3)c[nH]c2c1` came in with a melting point of 190 to 195 °C.

Take `Nc1cccc(OCc2ccccc2)c1NC(=O)c1ccc(OCc2ccccc2)c(C23CC4CC(CC(C4)C2)C3)c1`: the melting point was 80 to 82 °C.

On to `CC(CO)NC(=O)c1ccc(CN(C2CCCCC2F)S(=O)(=O)c2ccc(Cl)cc2)c(F)c1F` (centres undefined), for which the melting point lay within 126 to 128 °C.

Turning to `Nc1ccc(C#Cc2ccc(C#Cc3ccccc3)c([N+](=O)[O-])c2)cc1`, the melting point was in the range of 175 to 177 °C.

Consider `COc1ccc(C2(O)OC(=O)C(c3cc(OC)c4c(c3)OCO4)=C2CC2CCCC2)cc1C` (centres undefined), for which the melting point lay within 144 to 145 °C.

`Cc1cc(Nc2cc(-c3ccccc3)nc3ccccc23)[nH]n1` had a melting point of 242 to 244 °C.

In turn, `O=C(c1ccccc1)N1CCC(COc2ccccc2)CC1` gave a melting point of 95 to 96 °C.

In turn, `Cc1nnc(-c2ccc3occ(-c4ccc(O)cc4)c3c2)o1` displayed a melting point of 226 to 227 °C.

The compound `c1ccc(C(CCOc2ccc(Cc3nnn[nH]3)cc2)(c2ccccc2)c2ccccc2)cc1` gave a melting point of 187 to 189 °C.

`CN1CCN(CC(=O)N2CC=C(c3cccc(C(F)(F)F)c3)n3ncc(C#N)c32)CC1` had a melting point of 178 to 180 °C.

The compound `CCCNc1ccc(C#CCCN2CC=C(c3ccccc3)CC2)nc1` yielded a melting point of 138 to 139 °C.

Consider `O=C(O)c1cccc(-c2cc(-c3ccc(F)cc3)[nH]n2)c1`, for which the melting point fell in the range of 270 to 272 °C.

`CC(C)(C)C=Cc1nn(-c2ccc(F)cc2F)c2c1C1CCC2C1` (centres undefined) had a melting point of 98 to 101 °C.

The compound `COc1cccc2c1OC(COS(=O)(=O)c1ccc(C)cc1)CC2` (centres undefined) gave a melting point of 115 to 117 °C.

`CCCCc1oc2ccccc2c1C(=O)N(CC)Cc1ccc2cc(OCc3nnn[nH]3)ccc2c1` registered a melting point of 78 to 84 °C.

Consider `CCOC(=O)NC(=O)C(=NNc1cc(Cl)c(C(C)(C)C#N)c(Cl)c1)C(=O)NC(=O)OCC`, for which the melting point is 212 °C.

Consider `O=C(CCCCCNC(=O)[C@H](Cc1c[nH]c2ccccc12)NC(=O)CCCc1c[nH]c2ccccc12)NO`, for which the melting point was in the range of 94 to 96 °C.

The compound `Cc1c(CP(=O)(OCCCl)OCCCl)cc(C(C)(C)C)c(O)c1C` yielded a melting point of 133 to 135 °C.

`CN(C)C=CC(=O)c1cccnn1` gave a melting point of 102 to 105 °C.

`N#Cc1c(N)nc2ccc(N3CCN(Cc4ccccc4)CC3)cc2c1N=Cc1ccccc1`: the melting point worked out at 202 °C.

In the case of `CCOC(=O)c1cc(C)n(-c2ccc([N+](=O)[O-])cn2)c1-c1ccccc1`, the melting point was in the range of 147 to 149 °C.

`CC(C)(C)c1cc(C=Nn2ccnc2)cc(C(C)(C)C)c1O` had a melting point of 171 to 174 °C.

As for `NC(=O)Nc1cccc(CO)c1`, the melting point was 188 to 202 °C.

`CC12C(=CCC3C1CCC1(C)C3CCC13OCCO3)CC(O)CC2O` (centres undefined): the melting point lay in the range of 205 to 206 °C.

In turn, `COC(=O)CC(=O)c1cc(F)c(OC)c(F)c1` gave a melting point of 64 to 67 °C.

With `Clc1ncnc2[nH]nc(-c3ccccc3)c12`, the melting point is over 250 °C.

The compound `COc1cccc(C(c2cccc(OC)c2)C(Nc2nc(OC)cc(OC)n2)C(=O)O)c1` (centres undefined) showed a melting point of 58 to 66 °C.

In turn, `CC(C)(C)OC(=O)NCC(=O)Nc1cccc(I)c1` showed a melting point of 126 to 128 °C.

The compound `Cc1cc(C(=O)Nc2ccc(S(=O)(=O)C(F)(F)F)cc2Cl)c(O)c(C(C)(C)C)c1` gave a melting point of 209 to 212 °C.

`Nc1ccccc1C(=O)NCC1CCN(C(c2ccccc2)c2ccccc2)CC1` had a melting point of 153 to 154 °C.

Consider `CCOC(=O)C1=C(C)Nc2nccn2C1C` (centres undefined), for which the melting point lay within 185 to 186 °C.

As for `C=CCN(C)c1nc(-c2ccc(OC)cc2)nc2sc(C#N)c(C)c12`, the melting point was in the range of 126 to 128 °C.

In turn, `CCn1cc(C(=O)O)c(=O)c2cc(F)c(N3CCN(Cc4ccc([N+](=O)[O-])cc4)CC3)c(F)c21` gave a melting point of 241 to 242 °C.

As to `CCCSc1ncc(C=C(Cc2cccs2)C(=O)O)n1Cc1ccccc1Cl`, the melting point is 161 to 162 °C.

For the compound `CC(C)N1CCN(C(=O)c2ccc(-c3ccc(=O)n(C)n3)cc2)CC1`, the melting point fell in the range of 131 to 132 °C.
